Reference: ChEMBL document CHEMBL1201862, “PubChem BioAssay data set” (2004)
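Cultured in 96-well plates, cells were exposed to test compound for 48 hours across five concentrations. GI50: concentration for 50% inhibition of growth.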 Activity calls are given as the source filed them. No stated cut-off is given here; in the data, active = GI50 up to about 1.1 µM and inactive = higher.

Key:
Assay in all cases: inhibition of tumour cell growth, NCI panel, 48 h
COLO 205 = system: COLO 205
HCT-116 = system: HCT-116
HL-60 = system: HL-60
IGROV-1 = system: IGROV-1
MDA-MB-231 = system: MDA-MB-231
MDA-MB-435 = system: MDA-MB-435
MOLT-4 = system: MOLT-4
NCI-H23 = system: NCI-H23
NCI-H460 = system: NCI-H460
NCI/ADR-RES = system: NCI/ADR-RES
OVCAR-3 = system: OVCAR-3
OVCAR-8 = system: OVCAR-8
RPMI-8226 = system: RPMI-8226
SK-MEL-28 = system: SK-MEL-28
SNB-19 = system: SNB-19
SW-620 = system: SW-620
TK-10 = system: TK-10
UACC-257 = system: UACC-257
BT-549 = system: BT-549
OVCAR-4 = system: OVCAR-4

| SMILES | GI50 (COLO 205) | GI50 (HCT-116) | GI50 (HL-60) | GI50 (IGROV-1) | GI50 (MDA-MB-231) | GI50 (MDA-MB-435) | GI50 (MOLT-4) | GI50 (NCI-H23) | GI50 (NCI-H460) | GI50 (NCI/ADR-RES) | GI50 (OVCAR-3) | GI50 (OVCAR-8) | GI50 (RPMI-8226) | GI50 (SK-MEL-28) | GI50 (SNB-19) | GI50 (SW-620) | GI50 (TK-10) | GI50 (UACC-257) | GI50 (BT-549) | GI50 (OVCAR-4) |
| --- | --- | --- | --- | --- | --- | --- | --- | --- | --- | --- | --- | --- | --- | --- | --- | --- | --- | --- | --- | --- |
| O=C(Nc1ccccc1C(=O)NCc1ccccc1)/C(=C/c1ccccc1O)NC(=O)c1ccccc1 | > 100 µM (inactive) | > 100 µM (inactive) | 55.5 µM (inactive) | 73.1 µM (inactive) | 27.1 µM (inactive) | 50.7 µM (inactive) | > 100 µM (inactive) | > 100 µM (inactive) | > 100 µM (inactive) | 88.5 µM (inactive) | > 100 µM (inactive) | 95.1 µM (inactive) | > 100 µM (inactive) | > 100 µM (inactive) | > 100 µM (inactive) | > 100 µM (inactive) | 74.6 µM (inactive) | > 100 µM (inactive) | – | – |
| CC[N+]1(C)CCC(O)(/C=C/c2ccc(Cl)c(Cl)c2)C(C(=O)/C=C/c2ccc(Cl)c(Cl)c2)C1 (stereo not given) | 2.65 µM (inactive) | 1.57 µM (inactive) | 1.9 µM (inactive) | 2.96 µM (inactive) | – | 2.12 µM (inactive) | 2.28 µM (inactive) | 2.57 µM (inactive) | 2.99 µM (inactive) | 2.51 µM (inactive) | 3.09 µM (inactive) | 2.55 µM (inactive) | 2.17 µM (inactive) | 2.15 µM (inactive) | 6.11 µM (inactive) | 1.91 µM (inactive) | 2.43 µM (inactive) | 2.38 µM (inactive) | 2.96 µM (inactive) | – |
| COc1ccc(C(=O)Sc2c(-c3ccccc3)c(=O)n(-c3ccccc3)c(=S)n2-c2ccccc2)cc1 | 39.7 µM (inactive) | 29.7 µM (inactive) | 60.5 µM (inactive) | 10.1 µM (inactive) | > 100 µM (inactive) | > 100 µM (inactive) | 21.6 µM (inactive) | > 100 µM (inactive) | > 100 µM (inactive) | > 100 µM (inactive) | 30.5 µM (inactive) | 21.3 µM (inactive) | – | 81.5 µM (inactive) | 43.5 µM (inactive) | > 100 µM (inactive) | > 100 µM (inactive) | > 100 µM (inactive) | – | 44.4 µM (inactive) |
| O=S1(=O)OCCOS(=O)(=O)C1(F)Cc1ccccc1 | > 100 µM (inactive) | > 100 µM (inactive) | > 100 µM (inactive) | > 100 µM (inactive) | > 100 µM (inactive) | > 100 µM (inactive) | > 100 µM (inactive) | > 100 µM (inactive) | > 100 µM (inactive) | > 100 µM (inactive) | > 100 µM (inactive) | > 100 µM (inactive) | > 100 µM (inactive) | > 100 µM (inactive) | > 100 µM (inactive) | > 100 µM (inactive) | > 100 µM (inactive) | – | – | > 100 µM (inactive) |
| c1ccc2c(c1)[Se]c1ccccc1[Se]2 | > 100 µM (inactive) | 28.1 µM (inactive) | 27.1 µM (inactive) | 47.6 µM (inactive) | – | – | 77.6 µM (inactive) | 63.5 µM (inactive) | 38.3 µM (inactive) | – | > 100 µM (inactive) | > 100 µM (inactive) | > 100 µM (inactive) | > 100 µM (inactive) | > 100 µM (inactive) | > 100 µM (inactive) | 78.5 µM (inactive) | > 100 µM (inactive) | – | 23.4 µM (inactive) |
| O=C1CSC2=NC3=C(CSC/C3=C\c3ccc(Cl)cc3)C(c3ccc(Cl)cc3)N12 (stereo not given) | 33.1 µM (inactive) | 5.86 µM (inactive) | 22.2 µM (inactive) | 41.9 µM (inactive) | 21.8 µM (inactive) | 25.1 µM (inactive) | 9.08 µM (inactive) | 19.9 µM (inactive) | 28.5 µM (inactive) | 24.4 µM (inactive) | 15.5 µM (inactive) | 8.43 µM (inactive) | 17.5 µM (inactive) | 27 µM (inactive) | 37.2 µM (inactive) | 23.8 µM (inactive) | 32 µM (inactive) | 28.2 µM (inactive) | – | 4.46 µM (inactive) |
| Clc1ccccc1C(SCc1ccccc1)SCc1ccccc1 | > 100 µM (inactive) | > 100 µM (inactive) | 64.7 µM (inactive) | > 100 µM (inactive) | – | – | > 100 µM (inactive) | > 100 µM (inactive) | > 100 µM (inactive) | > 100 µM (inactive) | > 100 µM (inactive) | > 100 µM (inactive) | > 100 µM (inactive) | > 100 µM (inactive) | > 100 µM (inactive) | > 100 µM (inactive) | > 100 µM (inactive) | > 100 µM (inactive) | > 100 µM (inactive) | > 100 µM (inactive) |
| Cc1cc(NC(=O)C2C3C=CC(O3)C2C(=O)O)no1 (stereo not given) | 17.7 µM (inactive) | 17 µM (inactive) | 23.5 µM (inactive) | > 100 µM (inactive) | – | – | 32.6 µM (inactive) | > 100 µM (inactive) | 31.7 µM (inactive) | – | > 100 µM (inactive) | 16.2 µM (inactive) | 16.6 µM (inactive) | 97.7 µM (inactive) | > 100 µM (inactive) | 1.5 µM (inactive) | > 100 µM (inactive) | 35 µM (inactive) | – | 88.1 µM (inactive) |
| OC1CSCCCSCCSCCCSC1 | > 100 µM (inactive) | > 100 µM (inactive) | – | > 100 µM (inactive) | > 100 µM (inactive) | > 100 µM (inactive) | 12.1 µM (inactive) | > 100 µM (inactive) | > 100 µM (inactive) | – | > 100 µM (inactive) | > 100 µM (inactive) | 37.6 µM (inactive) | > 100 µM (inactive) | > 100 µM (inactive) | > 100 µM (inactive) | > 100 µM (inactive) | > 100 µM (inactive) | > 100 µM (inactive) | > 100 µM (inactive) |
| CC1=C2C(=O)c3ccccc3C(=O)[C@H]2C[C@@H](N2CCCC2=O)O1 | 79.1 µM (inactive) | – | 40.8 µM (inactive) | 80.9 µM (inactive) | 39.6 µM (inactive) | 18.5 µM (inactive) | 32.1 µM (inactive) | 21.9 µM (inactive) | 61.1 µM (inactive) | 28.4 µM (inactive) | 26.5 µM (inactive) | 50.9 µM (inactive) | 21.7 µM (inactive) | 54.7 µM (inactive) | > 100 µM (inactive) | 23.8 µM (inactive) | 70.3 µM (inactive) | 65.6 µM (inactive) | – | 20.2 µM (inactive) |
| O=C(O)CCC(=O)c1ccc2c(c1)C(C(=O)O)CC2 (stereo not given) | > 100 µM (inactive) | 0.0935 µM (active) | > 100 µM (inactive) | > 100 µM (inactive) | > 100 µM (inactive) | > 100 µM (inactive) | > 100 µM (inactive) | > 100 µM (inactive) | > 100 µM (inactive) | > 100 µM (inactive) | > 100 µM (inactive) | 0.652 µM (active) | > 100 µM (inactive) | > 100 µM (inactive) | > 100 µM (inactive) | > 100 µM (inactive) | > 100 µM (inactive) | > 100 µM (inactive) | – | > 100 µM (inactive) |
| O=c1cc(NNc2cccc(Cl)c2)[nH]c(=O)[nH]1 | 42.1 µM (inactive) | 17.9 µM (inactive) | 19.5 µM (inactive) | > 100 µM (inactive) | 17.9 µM (inactive) | – | 19.8 µM (inactive) | 59.8 µM (inactive) | > 100 µM (inactive) | > 100 µM (inactive) | 17.3 µM (inactive) | – | 20.3 µM (inactive) | 95.9 µM (inactive) | 46.3 µM (inactive) | 18.1 µM (inactive) | 20.8 µM (inactive) | 44.3 µM (inactive) | > 100 µM (inactive) | > 100 µM (inactive) |
| COC(=O)C(=O)C(C(=O)OC)C(=O)C(=O)Nc1c(C)cccc1C (stereo not given) | > 100 µM (inactive) | > 100 µM (inactive) | > 100 µM (inactive) | > 100 µM (inactive) | – | – | > 100 µM (inactive) | > 100 µM (inactive) | > 100 µM (inactive) | – | > 100 µM (inactive) | > 100 µM (inactive) | > 100 µM (inactive) | > 100 µM (inactive) | > 100 µM (inactive) | > 100 µM (inactive) | > 100 µM (inactive) | > 100 µM (inactive) | – | > 100 µM (inactive) |
| O=c1cc2oc3ccc4ccccc4c3cc-2c(=O)[nH]1 | 15.3 µM (inactive) | 17.1 µM (inactive) | 1.51 µM (inactive) | 14.2 µM (inactive) | – | 11 µM (inactive) | 2.25 µM (inactive) | 1.42 µM (inactive) | 22.9 µM (inactive) | 17.5 µM (inactive) | 11.4 µM (inactive) | 1.56 µM (inactive) | 2.96 µM (inactive) | 17.9 µM (inactive) | 14 µM (inactive) | 1.87 µM (inactive) | – | 16.4 µM (inactive) | 1.34 µM (inactive) | 22.3 µM (inactive) |
| COc1ccc(OCC(=O)O)c(C(=O)CCC(=O)O)c1 | > 100 µM (inactive) | > 100 µM (inactive) | > 100 µM (inactive) | > 100 µM (inactive) | – | – | > 100 µM (inactive) | > 100 µM (inactive) | > 100 µM (inactive) | – | > 10 µM (inactive) | > 100 µM (inactive) | > 100 µM (inactive) | > 100 µM (inactive) | > 100 µM (inactive) | > 100 µM (inactive) | > 100 µM (inactive) | > 100 µM (inactive) | – | > 100 µM (inactive) |
| NCCCC(N)(C(=O)O)C(F)F (stereo not given) [EFLORNITHINE] | > 5000 µM (inactive) | 815 µM (inactive) | > 3910 µM (inactive) | > 5000 µM (inactive) | – | – | 3030 µM (inactive) | > 5000 µM (inactive) | 933 µM (inactive) | > 5000 µM (inactive) | > 3940 µM (inactive) | – | > 5000 µM (inactive) | > 5000 µM (inactive) | > 5000 µM (inactive) | > 5000 µM (inactive) | > 100 µM (inactive) | > 5000 µM (inactive) | – | > 5000 µM (inactive) |
